Reference: paper PMC3250956, “Functional characterization and analgesic effects of mixed cannabinoid receptor/T-type channel ligands” (Molecular Pain, 2011)

Key:
[1] = biological target: T1, rat 5-HT2C (Rattus norvegicus, UniProt P08909); assay: Primary radioligand competitive binding assay, [3H]mesulergine; conditions: ligand 10 μM, HEK293 cells
T1 construct: expressed in transfected cells; host or cells: HEK293 (Flp-In system, pcDNA5.0FRT)
T1 sequence (P08909 33-460): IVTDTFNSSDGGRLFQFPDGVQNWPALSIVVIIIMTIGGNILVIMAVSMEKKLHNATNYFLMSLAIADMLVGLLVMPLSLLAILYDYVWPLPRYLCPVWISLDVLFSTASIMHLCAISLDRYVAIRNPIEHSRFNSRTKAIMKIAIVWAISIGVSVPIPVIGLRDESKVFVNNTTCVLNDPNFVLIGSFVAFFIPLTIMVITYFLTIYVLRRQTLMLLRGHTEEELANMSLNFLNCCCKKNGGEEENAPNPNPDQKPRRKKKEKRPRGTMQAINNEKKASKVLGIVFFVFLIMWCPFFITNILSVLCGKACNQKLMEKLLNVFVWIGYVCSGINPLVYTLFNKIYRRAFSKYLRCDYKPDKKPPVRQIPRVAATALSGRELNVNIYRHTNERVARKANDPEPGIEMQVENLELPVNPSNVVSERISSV
Description: (§1) HEK293 cells and CHO cells were used in the radioligand binding assay while tsA-201 cells were used in the electrophysiological study. Human CB2, human 5-HT2A, rat 5-HT2C used in the binding studies were cloned into pcDNA5.0FRT and cell lines were made using the FlpIn system from Invitrogen. tsA-201 cell culture and transient calcium channel transfection were performed as described previously. In brief, tsA-201 cells were transfected using the calcium phosphate method. Cav3.1, 3.2 and 3.3 α1 subunits were transfected individually with yellow fluorescent protein as a transfection marker.
(§2) Radioligand binding data were obtained using National Institute of Mental Health's Psychoactive Drug Screening Program (NIMH/PDSP) using the same protocol described for CB1 and CB2 binding experiments. Transfected HEK293 (human 5-HT2A or rat 5-HT2C) cells were used. The radioligands were [^3H]ketanserin (0.5 nM) and [^3H]mesulergine (0.5 nM) for respectively 5-HT2A and 5-HT2C experiments. Non-specific binding was determined in the presence of 10 μM chlorpromazine for both 5-HT2A and 5-HT2C binding experiments. Cells were harvested and homogenized in 50 mM Tris HCl, 10 mM MgCl2, 0.1 mM EDTA, pH 7.4. Incubation of radioreceptor binding assay mixtures was 1.5 hours at room temperature in the dark.

[2] = biological target: T2, Human CB2 (Homo sapiens, UniProt P34972); assay: Radioligand competitive binding, [3H]CP55940, HEK293 cells; design: expressed in transfected cells; conditions: for Ki: NA: not active at 1 μM, read-out: Mean Ki Human CB2; for Human CB2 (%) primary radioligand competitive binding: ligand 10 μM, HEK293 cells
Description: as §1
(§3) CB1 and CB2 radioligand binding data were obtained using National Institute of Mental Health (NIMH) Psychoactive Drug Screening Program (PDSP) resources as described earlier. Compounds were screened in a competitive binding experiment using, respectively, membrane fractions prepared from rat brain homogenate expressing CB1 receptor and HEK293 cells expressing the human CB2 receptor. Experiments were conducted at a range of different concentrations and in duplicate. The competition binding experiment for CB1 and CB2 was performed in 96 well plates containing Standard Binding Buffer (50 mM Tris HCl, 1 mM EDTA, 3 mM MgCl2, 5 mg/ml fatty acid-free BSA, pH 7.4). The radioligand was [^3H]CP55940, and the reference compound was CP55940. A solution of the compound to be tested was prepared as a 1 mg/ml stock in DMSO and then diluted in Standard Binding Buffer by serial dilution. Radioligand was diluted to five times the assay concentration in Standard Binding Buffer. Aliquots (50 μl) of radioligand were dispensed into the wells of a 96-well plate containing 100 μl of Standard Binding Buffer. Then, duplicate 50-μl aliquots of the test and reference compound dilutions were added. Finally, crude membrane fractions of cells were resuspended in 3 ml of chilled Standard Binding Buffer and homogenized by several passages through a 26 gauge needle, then 50 μl were dispensed into each well. The 250-μl reactions were incubated at room temperature for 1.5 hours, and then harvested by rapid filtration onto Whatman GF/B glass fiber filters pre-soaked with 0.3% polyethyleneimine using a 96-well Brandel harverster. Four rapid 500-μl washes were performed. Filters were placed in 6-ml scintillation tubes and allowed to dry overnight. Bound radioactivity was harvested onto 0.3% polyethyleneimine-treated, 96-well filter mats using a 96-well Filtermate harvester. The filter mats were dried, then scintillant was melted onto the filters and the radioactivity retained on the filters counted in a Microbeta scintillation counter. Raw data (dpm) representing total radioligand binding (i.e., specific + non-specific binding) were plotted as a function of the logarithm of the molar concentration of the competitor (i.e., test or reference compound). Non-linear regression of the normalized (i.e., percent radioligand binding compared to that observed in the absence of test or reference compound) raw data was performed in Prism 4.0 (GraphPad Software) using the built-in three parameter logistic model describing ligand competition binding to radioligand-labeled sites: y = bottom + [(top-bottom)/(1 + 10 × -logIC50)] where bottom equals the residual radioligand binding measured in the presence of 10 μM reference compound (i.e., non-specific binding) and top equals the total radioligand binding observed in the absence of competitor. The log IC50 (i.e., the log of the ligand concentration that reduces radioligand binding by 50%) is thus estimated from the data and used to obtain the Ki by applying the Cheng-Prusoff approximation: Ki = IC50/(1 + [ligand]/KD) where [ligand] equals the assay radioligand concentration and KD equals the affinity constant of the radioligand for the target receptor.

[3] = biological target: T3, human 5-HT2A (Homo sapiens, UniProt P28223); assay: Primary radioligand competitive binding assay, [3H]ketanserin; conditions: ligand 10 μM, HEK293 cells
T3 construct: expressed in transfected cells; host or cells: HEK293 (Flp-In system, pcDNA5.0FRT)
Description: as §1, §2

[4] = biological target: T4, Rat CB1 (Rattus norvegicus, UniProt P20272); assay: Radioligand competitive binding, [3H]CP55940, rat brain homogenate; conditions: for Ki: NA: not active at 1 μM, read-out: Mean Ki Rat CB1; for Rat CB1 (%) primary radioligand competitive binding: ligand 10 μM, rat brain homogenates
T4 construct: membrane fractions prepared from rat brain homogenate expressing CB1 receptor; from tissue; host or cells: rat brain homogenate
Description: as §3

[5] = biological target: Human CB1 (Homo sapiens, UniProt P21554); assay: GTPγ[35S] functional assay, CHO cell membrane extracts; conditions: NA: not active at 1 μM
[6] = biological target: T2, Human CB2; assay: as above; type: biochemical; design: expressed in transfected cells; host or cells: CHO cells (membrane extracts)

T2 sequence (P34972 whole entry): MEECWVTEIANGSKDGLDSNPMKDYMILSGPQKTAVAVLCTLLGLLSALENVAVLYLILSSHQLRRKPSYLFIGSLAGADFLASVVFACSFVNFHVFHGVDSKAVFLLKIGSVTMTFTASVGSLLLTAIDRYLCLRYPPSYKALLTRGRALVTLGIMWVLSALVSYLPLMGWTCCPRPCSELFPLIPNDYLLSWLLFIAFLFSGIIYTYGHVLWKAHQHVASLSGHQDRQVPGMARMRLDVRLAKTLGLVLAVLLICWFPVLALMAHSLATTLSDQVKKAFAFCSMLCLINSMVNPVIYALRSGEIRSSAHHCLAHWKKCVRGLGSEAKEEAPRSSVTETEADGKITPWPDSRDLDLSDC
T4 sequence (P20272 whole entry): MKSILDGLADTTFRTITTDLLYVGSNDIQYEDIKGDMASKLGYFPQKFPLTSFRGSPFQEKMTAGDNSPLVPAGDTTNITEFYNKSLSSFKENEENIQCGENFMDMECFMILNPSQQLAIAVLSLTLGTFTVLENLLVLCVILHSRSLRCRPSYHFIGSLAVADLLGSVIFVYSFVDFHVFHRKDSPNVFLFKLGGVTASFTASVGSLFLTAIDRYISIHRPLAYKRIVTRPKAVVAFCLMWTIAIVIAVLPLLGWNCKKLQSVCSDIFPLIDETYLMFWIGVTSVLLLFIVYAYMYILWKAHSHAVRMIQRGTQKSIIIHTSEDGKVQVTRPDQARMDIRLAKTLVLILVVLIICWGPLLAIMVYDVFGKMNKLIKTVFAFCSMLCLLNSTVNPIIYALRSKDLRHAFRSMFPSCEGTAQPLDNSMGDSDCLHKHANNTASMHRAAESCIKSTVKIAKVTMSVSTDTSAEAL
T3 sequence (P28223 whole entry): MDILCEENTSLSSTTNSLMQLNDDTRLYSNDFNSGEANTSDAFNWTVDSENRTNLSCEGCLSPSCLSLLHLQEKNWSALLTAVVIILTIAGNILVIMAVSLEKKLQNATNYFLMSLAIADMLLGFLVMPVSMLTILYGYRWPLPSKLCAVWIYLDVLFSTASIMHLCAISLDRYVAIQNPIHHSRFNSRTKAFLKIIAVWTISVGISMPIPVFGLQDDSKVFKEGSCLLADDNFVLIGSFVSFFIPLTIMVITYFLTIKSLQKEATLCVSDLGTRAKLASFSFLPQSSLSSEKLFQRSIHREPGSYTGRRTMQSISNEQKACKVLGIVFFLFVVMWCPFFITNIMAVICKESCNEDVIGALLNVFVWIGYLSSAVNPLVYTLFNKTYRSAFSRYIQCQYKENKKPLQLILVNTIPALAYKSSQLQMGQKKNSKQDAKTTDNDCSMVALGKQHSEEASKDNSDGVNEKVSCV
Chain of Human CB1 (P21554 whole entry): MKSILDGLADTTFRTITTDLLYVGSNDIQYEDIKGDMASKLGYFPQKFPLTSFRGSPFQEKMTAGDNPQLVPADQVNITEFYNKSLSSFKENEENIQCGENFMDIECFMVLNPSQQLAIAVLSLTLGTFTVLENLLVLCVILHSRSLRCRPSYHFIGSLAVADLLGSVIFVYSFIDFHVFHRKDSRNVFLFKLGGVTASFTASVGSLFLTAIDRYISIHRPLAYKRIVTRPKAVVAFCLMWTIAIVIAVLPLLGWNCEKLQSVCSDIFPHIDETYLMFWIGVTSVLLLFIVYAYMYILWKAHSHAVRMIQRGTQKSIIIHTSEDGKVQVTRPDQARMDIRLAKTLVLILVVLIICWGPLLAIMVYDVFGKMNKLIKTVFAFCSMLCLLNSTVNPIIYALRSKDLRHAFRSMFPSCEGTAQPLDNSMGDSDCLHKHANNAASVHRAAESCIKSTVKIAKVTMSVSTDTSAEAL

SMILES | Rat 5-HT2C (%) primary radioligand competitive binding [1] [%] | Ki [2] [nM] | Human CB2 (%) primary radioligand competitive binding [2] [%] | Human 5-HT2A (%) primary radioligand competitive binding [3] [%] | Ki [4] [nM] | Rat CB1 (%) primary radioligand competitive binding [4] [%] | GTPγ[35S] functional assays Human CB1 EC50 [5] | EC50 ([6]; read-out: GTPγ[35S] functional assays Human CB2 EC50) [nM] | Emax ([6]; read-out: GTPγ[35S] functional assays Human CB2 Emax) [%]
CCCCCn1c2c(c3ccccc31)C[C@H](C(=O)N1CCCCC1)NC2 [NMP-140] | -4.2 | 2870 ± 515 | 71.1 | 11.2 | 1250 ± 290 | 79.3 |  |  | 
CCCCCn1c2c(c3ccccc31)C[C@@H](C(=O)N1CCCCC1)NC2 [NMP-141] | -8.4 | 481 ± 52.9 | 88.7 | 11.9 | 906 ± 211 | 88.6 | did not show any agonistic or antagonistic activities | 112 ± 3.3 | 51.9
